# Measured values as given in ChEMBL document CHEMBL5523679, “Discovery of 1,2,3-triazole incorporated indole-piperazines as potent antitubercular agents: Design, synthesis, in vitro biological evaluation, molecular docking and ADME studies” (Bioorg Med Chem, 2024).
# System: not listed separately
# Test: Cytotoxicity against African green monkey Vero cells assessed as inhibition of cell growth at 6.25 ug/ml measured after 72 hrs by MTT assay relative to control
# Type: toxicity, cell-based
# Conditions: chlorocebus sabaeus, at 6.25 µg/mL
row,Structure (SMILES),"inhibition at 72 h, 6.25 ug/ml [%]"
1,O=C(CCc1cn(Cc2cn(Cc3ccc(F)cc3)nn2)c2ccccc12)N1CCN(S(=O)(=O)c2ccc(F)cc2)CC1,11.9
2,O=C(CCc1cn(Cc2ccc(F)cc2)c2ccccc12)N1CCN(C(=O)c2ccc(Cl)cc2)CC1,36.4
3,O=C(CCc1cn(Cc2cn(Cc3ccc(F)cc3)nn2)c2ccccc12)N1CCN(C(=O)c2cccnc2)CC1,11.7
4,O=C(CCc1cn(Cc2cn(Cc3ccc(F)cc3)nn2)c2ccccc12)N1CCN(C(=O)c2ccccc2C(F)(F)F)CC1,5.4
5,O=C(CCc1cn(Cc2cn(Cc3ccc(F)cc3)nn2)c2ccccc12)N1CCN(C(=O)c2ccc(F)cc2)CC1,11.7
6,Cc1ccc(C(=O)N2CCN(C(=O)CCc3cn(Cc4cn(Cc5ccc(F)cc5)nn4)c4ccccc34)CC2)cc1,9.4

# System: not listed separately
# Test: Cytotoxicity against African green monkey Vero cells measured after 72 hrs by MTT assay
# Type: toxicity, cell-based
# Conditions: chlorocebus sabaeus
row,Structure (SMILES),CC50 at 72 h [µg/mL]
1,O=C(CCc1cn(Cc2cn(Cc3ccc(F)cc3)nn2)c2ccccc12)N1CCN(S(=O)(=O)c2ccc(F)cc2)CC1,1700
2,O=C(CCc1cn(Cc2ccc(F)cc2)c2ccccc12)N1CCN(C(=O)c2ccc(Cl)cc2)CC1,385
3,O=C(CCc1cn(Cc2cn(Cc3ccc(F)cc3)nn2)c2ccccc12)N1CCN(C(=O)c2cccnc2)CC1,1170
4,O=C(CCc1cn(Cc2cn(Cc3ccc(F)cc3)nn2)c2ccccc12)N1CCN(C(=O)c2ccccc2C(F)(F)F)CC1,837
5,O=C(CCc1cn(Cc2cn(Cc3ccc(F)cc3)nn2)c2ccccc12)N1CCN(C(=O)c2ccc(F)cc2)CC1,1200
6,Cc1ccc(C(=O)N2CCN(C(=O)CCc3cn(Cc4cn(Cc5ccc(F)cc5)nn4)c4ccccc34)CC2)cc1,1320

# System: Staphylococcus aureus
# Test: Antibacterial activity against Staphylococcus aureus assessed as inhibition zone at 75 ug/ml by diffusion method
# Type: functional
# Conditions: read-out: IZ
row,Structure (SMILES),zone of inhibition at 75 µg/mL [mm]
1,O=C(CCc1cn(Cc2cn(Cc3ccc(F)cc3)nn2)c2ccccc12)N1CCN(S(=O)(=O)c2ccc(F)cc2)CC1,20
2,O=C(CCc1cn(Cc2ccc(F)cc2)c2ccccc12)N1CCN(C(=O)c2ccc(Cl)cc2)CC1,23
3,O=C(CCc1cn(Cc2cn(Cc3ccc(F)cc3)nn2)c2ccccc12)N1CCN(C(=O)c2cccnc2)CC1,18
4,O=C(CCc1cn(Cc2cn(Cc3ccc(F)cc3)nn2)c2ccccc12)N1CCN(C(=O)c2ccccc2C(F)(F)F)CC1,20
5,O=C(CCc1cn(Cc2cn(Cc3ccc(F)cc3)nn2)c2ccccc12)N1CCN(C(=O)c2ccc(F)cc2)CC1,20
6,Cc1ccc(C(=O)N2CCN(C(=O)CCc3cn(Cc4cn(Cc5ccc(F)cc5)nn4)c4ccccc34)CC2)cc1,20

# System: Mycobacterium tuberculosis
# Test: Antimycobacterial activity against Mycobacterium tuberculosis H37Rv assessed as bacterial growth inhibition by microplate Alamar blue assay
# Type: functional
# Conditions: not given
row,Structure (SMILES),MIC [µM]
1,O=C(CCc1cn(Cc2cn(Cc3ccc(F)cc3)nn2)c2ccccc12)N1CCN(S(=O)(=O)c2ccc(F)cc2)CC1,2.6
2,O=C(CCc1cn(Cc2ccc(F)cc2)c2ccccc12)N1CCN(C(=O)c2ccc(Cl)cc2)CC1,12.4
3,O=C(CCc1cn(Cc2cn(Cc3ccc(F)cc3)nn2)c2ccccc12)N1CCN(C(=O)c2cccnc2)CC1,2.9
4,O=C(CCc1cn(Cc2cn(Cc3ccc(F)cc3)nn2)c2ccccc12)N1CCN(C(=O)c2ccccc2C(F)(F)F)CC1,5
5,O=C(CCc1cn(Cc2cn(Cc3ccc(F)cc3)nn2)c2ccccc12)N1CCN(C(=O)c2ccc(F)cc2)CC1,2.8
6,Cc1ccc(C(=O)N2CCN(C(=O)CCc3cn(Cc4cn(Cc5ccc(F)cc5)nn4)c4ccccc34)CC2)cc1,5.5

# System: not listed separately
# Test: Selectivity index, ratio of CC50 for African green monkey Vero cells to MIC for Mycobacterium tuberculosis H37Rv
# Type: toxicity
# Conditions: read-out: Selectivity Index
row,Structure (SMILES),selectivity ratio
1,O=C(CCc1cn(Cc2cn(Cc3ccc(F)cc3)nn2)c2ccccc12)N1CCN(S(=O)(=O)c2ccc(F)cc2)CC1,1060
2,O=C(CCc1cn(Cc2ccc(F)cc2)c2ccccc12)N1CCN(C(=O)c2ccc(Cl)cc2)CC1,61.6
3,O=C(CCc1cn(Cc2cn(Cc3ccc(F)cc3)nn2)c2ccccc12)N1CCN(C(=O)c2cccnc2)CC1,732
4,O=C(CCc1cn(Cc2cn(Cc3ccc(F)cc3)nn2)c2ccccc12)N1CCN(C(=O)c2ccccc2C(F)(F)F)CC1,268
5,O=C(CCc1cn(Cc2cn(Cc3ccc(F)cc3)nn2)c2ccccc12)N1CCN(C(=O)c2ccc(F)cc2)CC1,750
6,Cc1ccc(C(=O)N2CCN(C(=O)CCc3cn(Cc4cn(Cc5ccc(F)cc5)nn4)c4ccccc34)CC2)cc1,424

# System: Pseudomonas aeruginosa
# Test: Antibacterial activity against Pseudomonas aeruginosa assessed as inhibition zone at 50 ug/ml by diffusion method
# Type: functional
# Conditions: read-out: IZ
row,Structure (SMILES),zone of inhibition at 50 µg/mL [mm]
1,O=C(CCc1cn(Cc2cn(Cc3ccc(F)cc3)nn2)c2ccccc12)N1CCN(S(=O)(=O)c2ccc(F)cc2)CC1,10
2,O=C(CCc1cn(Cc2ccc(F)cc2)c2ccccc12)N1CCN(C(=O)c2ccc(Cl)cc2)CC1,10
3,O=C(CCc1cn(Cc2cn(Cc3ccc(F)cc3)nn2)c2ccccc12)N1CCN(C(=O)c2ccccc2C(F)(F)F)CC1,15
4,Cc1ccc(C(=O)N2CCN(C(=O)CCc3cn(Cc4cn(Cc5ccc(F)cc5)nn4)c4ccccc34)CC2)cc1,10

# System: Staphylococcus aureus
# Test: Antibacterial activity against Staphylococcus aureus assessed as inhibition zone at 25 ug/ml by diffusion method
# Type: functional
# Conditions: read-out: IZ
row,Structure (SMILES),zone of inhibition at 25 µg/mL [mm]
1,O=C(CCc1cn(Cc2cn(Cc3ccc(F)cc3)nn2)c2ccccc12)N1CCN(S(=O)(=O)c2ccc(F)cc2)CC1,13
2,O=C(CCc1cn(Cc2ccc(F)cc2)c2ccccc12)N1CCN(C(=O)c2ccc(Cl)cc2)CC1,13
3,O=C(CCc1cn(Cc2cn(Cc3ccc(F)cc3)nn2)c2ccccc12)N1CCN(C(=O)c2cccnc2)CC1,6
4,O=C(CCc1cn(Cc2cn(Cc3ccc(F)cc3)nn2)c2ccccc12)N1CCN(C(=O)c2ccc(F)cc2)CC1,13
5,Cc1ccc(C(=O)N2CCN(C(=O)CCc3cn(Cc4cn(Cc5ccc(F)cc5)nn4)c4ccccc34)CC2)cc1,13

# System: Escherichia coli
# Test: Antibacterial activity against Escherichia coli assessed as inhibition zone at 25 ug/ml by diffusion method
# Type: functional
# Conditions: read-out: IZ
row,Structure (SMILES),zone of inhibition at 25 µg/mL [mm]
1,O=C(CCc1cn(Cc2cn(Cc3ccc(F)cc3)nn2)c2ccccc12)N1CCN(S(=O)(=O)c2ccc(F)cc2)CC1,13
2,O=C(CCc1cn(Cc2cn(Cc3ccc(F)cc3)nn2)c2ccccc12)N1CCN(C(=O)c2cccnc2)CC1,15
3,O=C(CCc1cn(Cc2cn(Cc3ccc(F)cc3)nn2)c2ccccc12)N1CCN(C(=O)c2ccccc2C(F)(F)F)CC1,15
4,O=C(CCc1cn(Cc2cn(Cc3ccc(F)cc3)nn2)c2ccccc12)N1CCN(C(=O)c2ccc(F)cc2)CC1,15
5,Cc1ccc(C(=O)N2CCN(C(=O)CCc3cn(Cc4cn(Cc5ccc(F)cc5)nn4)c4ccccc34)CC2)cc1,15

# System: Pseudomonas aeruginosa
# Test: Antibacterial activity against Pseudomonas aeruginosa assessed as inhibition zone at 25 ug/ml by diffusion method
# Type: functional
# Conditions: read-out: IZ
row,Structure (SMILES),zone of inhibition at 25 µg/mL [mm]
1,O=C(CCc1cn(Cc2cn(Cc3ccc(F)cc3)nn2)c2ccccc12)N1CCN(C(=O)c2ccccc2C(F)(F)F)CC1,10

# System: Staphylococcus aureus
# Test: Antibacterial activity against Staphylococcus aureus assessed as inhibition zone at 50 ug/ml by diffusion method
# Type: functional
# Conditions: read-out: IZ
row,Structure (SMILES),zone of inhibition at 50 µg/mL [mm]
1,O=C(CCc1cn(Cc2cn(Cc3ccc(F)cc3)nn2)c2ccccc12)N1CCN(S(=O)(=O)c2ccc(F)cc2)CC1,18
2,O=C(CCc1cn(Cc2ccc(F)cc2)c2ccccc12)N1CCN(C(=O)c2ccc(Cl)cc2)CC1,19
3,O=C(CCc1cn(Cc2cn(Cc3ccc(F)cc3)nn2)c2ccccc12)N1CCN(C(=O)c2cccnc2)CC1,15
4,O=C(CCc1cn(Cc2cn(Cc3ccc(F)cc3)nn2)c2ccccc12)N1CCN(C(=O)c2ccccc2C(F)(F)F)CC1,13
5,O=C(CCc1cn(Cc2cn(Cc3ccc(F)cc3)nn2)c2ccccc12)N1CCN(C(=O)c2ccc(F)cc2)CC1,15
6,Cc1ccc(C(=O)N2CCN(C(=O)CCc3cn(Cc4cn(Cc5ccc(F)cc5)nn4)c4ccccc34)CC2)cc1,13

# System: Pseudomonas aeruginosa
# Test: Antibacterial activity against Pseudomonas aeruginosa assessed as inhibition zone at 75 ug/ml by diffusion method
# Type: functional
# Conditions: read-out: IZ
row,Structure (SMILES),zone of inhibition at 75 µg/mL [mm]
1,O=C(CCc1cn(Cc2cn(Cc3ccc(F)cc3)nn2)c2ccccc12)N1CCN(S(=O)(=O)c2ccc(F)cc2)CC1,15
2,O=C(CCc1cn(Cc2ccc(F)cc2)c2ccccc12)N1CCN(C(=O)c2ccc(Cl)cc2)CC1,13
3,O=C(CCc1cn(Cc2cn(Cc3ccc(F)cc3)nn2)c2ccccc12)N1CCN(C(=O)c2cccnc2)CC1,10
4,O=C(CCc1cn(Cc2cn(Cc3ccc(F)cc3)nn2)c2ccccc12)N1CCN(C(=O)c2ccccc2C(F)(F)F)CC1,18
5,O=C(CCc1cn(Cc2cn(Cc3ccc(F)cc3)nn2)c2ccccc12)N1CCN(C(=O)c2ccc(F)cc2)CC1,13
6,Cc1ccc(C(=O)N2CCN(C(=O)CCc3cn(Cc4cn(Cc5ccc(F)cc5)nn4)c4ccccc34)CC2)cc1,13

# System: Escherichia coli
# Test: Antibacterial activity against Escherichia coli assessed as inhibition zone at 75 ug/ml by diffusion method
# Type: functional
# Conditions: read-out: IZ
row,Structure (SMILES),zone of inhibition at 75 µg/mL [mm]
1,O=C(CCc1cn(Cc2cn(Cc3ccc(F)cc3)nn2)c2ccccc12)N1CCN(S(=O)(=O)c2ccc(F)cc2)CC1,25
2,O=C(CCc1cn(Cc2ccc(F)cc2)c2ccccc12)N1CCN(C(=O)c2ccc(Cl)cc2)CC1,18
3,O=C(CCc1cn(Cc2cn(Cc3ccc(F)cc3)nn2)c2ccccc12)N1CCN(C(=O)c2cccnc2)CC1,25
4,O=C(CCc1cn(Cc2cn(Cc3ccc(F)cc3)nn2)c2ccccc12)N1CCN(C(=O)c2ccccc2C(F)(F)F)CC1,25
5,O=C(CCc1cn(Cc2cn(Cc3ccc(F)cc3)nn2)c2ccccc12)N1CCN(C(=O)c2ccc(F)cc2)CC1,23
6,Cc1ccc(C(=O)N2CCN(C(=O)CCc3cn(Cc4cn(Cc5ccc(F)cc5)nn4)c4ccccc34)CC2)cc1,25

# System: Escherichia coli
# Test: Antibacterial activity against Escherichia coli assessed as inhibition zone at 50 ug/ml by diffusion method
# Type: functional
# Conditions: read-out: IZ
row,Structure (SMILES),zone of inhibition at 50 µg/mL [mm]
1,O=C(CCc1cn(Cc2cn(Cc3ccc(F)cc3)nn2)c2ccccc12)N1CCN(S(=O)(=O)c2ccc(F)cc2)CC1,20
2,O=C(CCc1cn(Cc2ccc(F)cc2)c2ccccc12)N1CCN(C(=O)c2ccc(Cl)cc2)CC1,15
3,O=C(CCc1cn(Cc2cn(Cc3ccc(F)cc3)nn2)c2ccccc12)N1CCN(C(=O)c2cccnc2)CC1,23
4,O=C(CCc1cn(Cc2cn(Cc3ccc(F)cc3)nn2)c2ccccc12)N1CCN(C(=O)c2ccccc2C(F)(F)F)CC1,23
5,O=C(CCc1cn(Cc2cn(Cc3ccc(F)cc3)nn2)c2ccccc12)N1CCN(C(=O)c2ccc(F)cc2)CC1,20
6,Cc1ccc(C(=O)N2CCN(C(=O)CCc3cn(Cc4cn(Cc5ccc(F)cc5)nn4)c4ccccc34)CC2)cc1,20
